Series [1] has as its system mouse red blood cells. The series can be described thus: Hemolysis assay. The class given is cell-based. Particulars: 10% mouse erythrocytes, 6.25–200 µM (27–868 µg/mL), 1 h, 37 °C, absorbance 400 nm. The method, then:
Red Blood Cells (RBCs) suspension was prepared from whole blood extracted from the heart of Hsd:ICR (CD-1) mice (Envigo, Huntingdon, Cambridgeshire, UK). The study was carried out in accordance with relevant guidelines and regulations, and was approved by the Hebrew University Ethics Committee for the Care and Use of Laboratory Animals under approval number NS-15-14575-3. Briefly, blood was collected in a 24 U/mL heparin tube to prevent coagulation. Then cells were washed with Phosphate Buffered Saline (PBS; Biological Industries) and centrifuged at 200g for 10 min at 20 °C. This operation was repeated three times, then remaining RBCs were resuspended in saline or PBS to form a 10% RBC solution. Increasing concentrations of OMN6 or 1% Tween were added to RBCs. After an incubation of 1 h at 37 °C with shaking at 100 rpm, experiment tubes were centrifuged for 10 min at 200g at room temperature. 100 µL supernatant was extracted from each tube and tested according to the Hemoglobin Assay Kit (Sigma-Aldrich). Hemoglobin levels were determined via absorbance at 400 nm.

Series [2] concerns E. coli GFPuv. The class given is cell-based, Escherichia coli. The protocol: E. coli GFPuv bacteria (contribution from Dr. Tsafi Danieli, head of the Protein Expression Facility at the Hebrew University of Jerusalem, Israel) were grown in LB broth (BD) and induced to express the Green Fluorescent Protein (GFP) in auto-induction medium, as previously described by F.W. Studier[31]. Briefly, bacteria were cultured for 3 h at 37 °C while shaking at 200 rpm, in induction medium ZYP-5052 containing 1% N-Z amine AS, 0.5% yeast extract, 50 mM Na2HPO4, 50 mM KH2HPO4, 25 mM (NH4)2SO4, 2 mM MgSO4, 0.5% glycerol, 0.05% glucose and 0.2% lactose. For the bacterium visualization experiment, 2 × 10^6 colony-forming units (CFU) were treated by 16 µg/mL OMN6 or Double-Distilled Water (DDW) for 60 min. Bacteria were monitored with a confocal microscope at a wavelength of 488 nm. Then, bacteria were seeded on LB agar (BD) plates, incubated at 37 °C for 24 h, and CFU were counted. For the supernatant visualization and quantification experiment, 10^5 CFU were co-incubated with 50 µM OMN6 or DDW for 30 min, and bacteria were collected and centrifuged at 5000 rpm for 10 min. Experiment tubes were visualized under UV light. Then, supernatants were collected, and the absence of a significant quantity of bacteria in the supernatants was checked in a microplate reader by absorbance at 600 nm (OD < 0.05). Fluorescence levels were then quantified with excitation at 395 nm and emission at 509 nm.

For series [3], the system named is HEK293T cells. The class given is cell-based. The method, then:
HEK-293T17 cells (ATCC CRL-1573) were purchased from ATCC and cultured to 80% confluency according to the ATCC culture method, using high-glucose and L-Glutamine Dulbecco's Modified Eagle Medium (DMEM) medium (ATCC catalog number 30-2002) supplemented with 10% fetal bovine serum and 1% Penicillin–Streptomycin solution (all from Biological Industries). For the experiment purposes, 30,000 cells were transferred to a 96-well plate (experiment plate) in a final volume of 100 µL of medium. The experiment plate was incubated at 5% CO2 and 37 °C for approximately 18 h. After 18 h, medium was discarded, and cells were co-incubated with OMN6, Melittin (Sigma-Aldrich) or dimethyl sulfoxide (DMSO; MP Biomedical LLC, Solon, OH, USA) that were prepared in new medium at desired concentrations. The experiment plate was incubated at 5% CO2 and 37 °C for 24 h. Then, glutaraldehyde at a final concentration of 0.5% was added in all wells for 10 min for cell fixation. After washing the plate 3 times with DDW, the experiment plate was dried overnight. Then, cells were washed with 0.1 M Borate buffer (pH = 8.5) for 1 min. 100 µL Methylene Blue diluted in the same Borate buffer was added to all wells for 1 h. Wells were washed with DDW and plate was dried overnight. Color extraction was executed by adding 0.1 M HCl. After an incubation at 37 °C for 1 h, cell survival was determined via absorbance at 620 nm using a microplate reader.

The subject of series [4] is Acinetobacter baumannii clinical isolates. The series can be described thus: Time-kill studies. Format: cell-based. The method, then:
Time-kill experiments were performed by JMI Laboratories (North Liberty, IA, USA) as described in chapter 5.14 of the Clinical Microbiology Procedures Handbook[32] and the CLSI M26-A[33] document. Two Acinetobacter baumannii clinical isolates (JMI colistin-sensitive strain #1088100 and colistin-resistant strain #1001007) were used for this study. MIC values that were determined in Difco Muller Hinton Broth (BD) for OMN6 and colistin as described above, were used as the baseline values during time-kill testing. In the time-kill experiments, OMN6 and colistin were tested in Difco Muller Hinton Broth. The time-kill cultures were sampled at 0, 2, 4, 8, and 24 h after compound addition. The number of CFU/mL in each culture was measured by plating 100 μL of serial dilutions onto blood agar plates. Colonies were counted after 48 h of growth at 35 °C. Time-kill curves were generated by plotting CFU/mL as log10 values over time. The limit of detection was 10 CFU/mL. Bactericidal activity was defined as a ≥ 99.9% reduction (i.e., a ≥ 3 log10 decrease) in the number of input bacterial cells at any arbitrary timepoint.

Series [5] has as its system Gram-positive strains (S. aureus, E. faecium, E. faecalis, B. cereus). The series can be described thus: MIC, broth microdilution (CLSI), summary over strains. Particulars: E. faecalis and B. cereus, summary of Table 1. Format: cell-based. The source says: (Italy), an Evotec Company.
(In broth dilution the organism is exposed to a series of concentrations in liquid medium.)

In series [6] the target is T1, Proteinase-K (Parengyodontium album, UniProt P06873).
T1 construct: purchased Sigma-Aldrich
The series can be described thus: Peptide stability to Proteinase-K (SDS-PAGE). Format: in vitro ADME. Particulars: 10 µg peptide with 5 or 20 ng Proteinase-K (0.16 or 0.66 µg/mL), 2 h, 37 °C; 15% acrylamide SDS-PAGE, Coomassie stain. The method, then: 10 µg of synthetic cecropin A (Genscript, Piscataway, NJ, USA), OMN6, or bovine serum albumin (BSA; Sigma-Aldrich, St. Louis, MO, USA) were incubated with 5 or 20 ng Proteinase-K (Sigma-Aldrich; final treatment concentration of 0.16 or 0.66 µg/mL respectively) for 2 h at 37 °C, and separated on a 15% acrylamide gel (Bio-Rad, Hercules, CA, USA) by SDS-PAGE. The gel was then stained with Coomassie dye and excess color was removed over-night.

Bridge positions count the residues as written; N and C are the ends. Peptide text beside a SMILES is read from it.

T1 sequence (P06873 106-384): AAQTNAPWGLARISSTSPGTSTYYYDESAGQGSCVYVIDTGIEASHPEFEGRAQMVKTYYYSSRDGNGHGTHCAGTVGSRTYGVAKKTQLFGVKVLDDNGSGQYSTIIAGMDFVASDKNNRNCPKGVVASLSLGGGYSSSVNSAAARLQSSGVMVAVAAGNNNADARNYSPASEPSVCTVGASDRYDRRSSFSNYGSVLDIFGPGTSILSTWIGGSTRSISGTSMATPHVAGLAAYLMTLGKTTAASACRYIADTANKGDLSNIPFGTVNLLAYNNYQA

As to `CC[C@H](C)[C@@H]1NC(=O)CNC(=O)[C@H](CC(=O)O)NC(=O)[C@H](CCCNC(=N)N)NC(=O)[C@H]([C@@H](C)CC)NC(=O)[C@H](CC(N)=O)NC(=O)[C@H](CCC(N)=O)NC(=O)CNC(=O)[C@H](C(C)C)NC(=O)[C@H](CCCCN)NC(=O)[C@H](CCC(=O)O)NC(=O)[C@H]([C@@H](C)CC)NC(=O)[C@H](CCCCN)NC(=O)[C@H](CCCCN)NC(=O)[C@H](Cc2ccccc2)NC(=O)[C@H](CC(C)C)NC(=O)[C@H](CCCCN)NC(=O)[C@H](Cc2c[nH]c3ccccc23)NC(=O)[C@H](CCCCN)NC(=O)[C@@H](NC(=O)[C@@H](N)CCSC)CSSC[C@@H](C(N)=O)NC(=O)[C@H](CCCCN)NC(=O)[C@H](C)NC(=O)[C@H]([C@@H](C)CC)NC(=O)[C@H](CCC(N)=O)NC(=O)[C@H]([C@@H](C)O)NC(=O)[C@H](C)NC(=O)[C@H](CCC(N)=O)NC(=O)CNC(=O)[C@H](C(C)C)NC(=O)[C@H](C(C)C)NC(=O)[C@H](C)NC(=O)[C@H](C(C)C)NC(=O)[C@H](C)NC(=O)[C@@H]2CCCN2C(=O)CNC(=O)[C@H](C)NC(=O)[C@H](CCCCN)NC(=O)[C@H]([C@@H](C)CC)NC1=O` [OMN6] (H-MCKWKLFKKIEKVGQNIRDGIIKAGPAVAVVGQATQIAKC-NH2; disulfide 2-40; N-terminus assumed), the “Hemolysis expressed as free Hemoglobin” value in series [1] was “no hemolysis”. In series [2] (16 µg/mL, 60 min, confocal microscope 488 nm, single bacterium), the “Reduction in fluorescence arbitrary units (FU) of a bacterium, T = 0 h to T = 1 h (GFP leakage)” value is 12,000 FU. Moreover, the “CFU on agar plates after treatment (bacterial death)” value in series [2] (2 × 10^6 CFU, 16 µg/mL, 60 min, then LB agar 37 °C 24 h, data not shown) was “No CFU”. Besides, in series [2] (E. coli GFPuv 10^5 CFU, 50 µM, 30 min, centrifuged 5000 rpm, excitation 395 nm, emission 509 nm, p = 0.01), the “Level of fluorescence (FU) in supernatants vs DDW control” value is reported as “distinct increase”. In series [3] (6.25–200 µM (27–868 µg/mL), 24 h, Methylene Blue, absorbance 620 nm, all concentrations), the “Survival rate of HEK293T cells” value is given as “not affected”. For the same compound, the “Therapeutic window (no toxicity to mammalian cells vs MIC value against Gram-negative bacterial species)” value in series [3] (relative to MIC against Gram-negative species) was “larger than tenfold”. In addition, the “Bactericidal pattern on colistin-resistant strain” value in series [4] (colistin-resistant A. baumannii JMI #1001007, similar timeframe and concentrations as on the colistin-sensitive strain) is given as “retained its bactericidal pattern”. In series [4] (colistin-sensitive A. baumannii JMI #1088100, Difco Muller Hinton Broth, bactericidal = ≥ 3 log10 decrease), the “Concentrations with bactericidal effect after 2 h of incubation” value is more than 8 µg/mL. In series [4] (colistin-sensitive A. baumannii JMI #1088100, Difco Muller Hinton Broth, sampled 0, 2, 4, 8, 24 h), the “Re-growth during the 24 h timeframe” value was “No re-growth”. Moreover, the “MIC on all tested Gram-positive strains” value in series [5] is on record as more than 256 µg/mL. In series [6], the “Stability after exposure to Proteinase-K” value is “remained intact”.

The record behind these values is PMC7988117, “OMN6 a novel bioengineered peptide for the treatment of multidrug resistant Gram negative bacteria” (Scientific Reports, 2021).
